Our source for the IC50 values is patent US20030220376A1, “Methods for treating carbonic anhydrase mediated disorders” (Pharmacia Corporation, priority 2001, published 2003).

“And” between values parts separate entries of the source, which are not always exact repeats. Equal values may be shown once.

One assay deals with T1, human carbonic anhydrase II (Homo sapiens, UniProt P00918).
T1 construct: purchased Sigma C-6165
The assay can be described thus: Carbonic anhydrase II inhibition assay (p-nitrophenol acetate, absorbance at 405 nm). Format: biochemical. The note with it: Table 2; overall value of N determinations; read-out: CA Assay IC50 (μM) and concentration of inhibitor added. As to the method:
Final concentrations of each inhibitor ranged from 1 picomolar to 1 micromolar. Control samples that included either no inhibitor or no enzyme were also performed.
The admixture of substrate and enzyme initiates the enzyme reaction. […] The inhibition at each inhibitor concentration was measured in triplicate. The IC50 value was then derived using the GraphPad Prism curve fitting software. […] The compound number listed in Table 2 and 3 corresponds with the same compound number detailed in Table 1.
Consider `CCCCOc1ccc(-c2cc(C(F)(F)F)nn2-c2ccc(S(N)(=O)=O)cc2)cc1` [Compound 2], for which the IC50 stood at 0.04 µM.
On to `NS(=O)(=O)c1ccc(-n2nc(-c3ccccc3)cc2-c2ccccc2)cc1` [Compound 3], for which the IC50 worked out at 0.04 µM.
`CC(=O)SCc1cc(-c2ccc(Cl)cc2)n(-c2ccc(S(N)(=O)=O)cc2)n1` [Compound 4]: the IC50 came to 0.09 µM.
The same measure, in the same setting: to `C=C1N[C@@H]2[C@@H](CS[C@@H]2CCCCC(=O)NCCOCCOCCNC(=O)CSCc2cc(-c3ccc(Cl)cc3)n(-c3ccc(S(N)(=O)=O)cc3)n2)N1` [Compound 6] belongs 0.18 µM; to `CS(=O)(=O)c1ccc(-n2nccc2-c2ccc(F)cc2)cc1` [IX, reference compound], greater than 100 µM; to `CS(=O)(=O)c1ccc(C2=C(c3ccccc3)C(=O)OC2)cc1` [VIII, Rofecoxib, reference compound], greater than 100 µM.
For the molecule `O=C(c1ccc(-n2nc(C(F)(F)F)cc2-c2ccc(F)cc2)cc1)C(F)(F)F` [X, reference compound], the IC50 is greater than 100 µM.

Staying with this assay, now noted: Table 2; single values of the N determinations; read-out: CA Assay IC50 (μM), individual determinations in parentheses.
Consider `Cc1ccc(-c2cc(C(F)(F)F)n(-c3ccc(S(N)(=O)=O)cc3)n2)cc1` [Compound 1], for which the IC50 is 0.015 µM and 0.021 µM and 0.004 µM.
Take `CCCCOc1ccc(-c2cc(C(F)(F)F)nn2-c2ccc(S(N)(=O)=O)cc2)cc1` [Compound 2]: the IC50 was 0.03 µM and 0.04 µM.

The assay is the same for the next values; noted with them: Table 3; mean; read-out: Mean IC50.
As to `NC(=O)c1nn(-c2ccc(S(N)(=O)=O)cc2)c2c1CCc1cnccc1-2` [Compound 8], the IC50 amounted to 0.195 µM.
In the case of `COC(=O)C1c2ccccc2-c2c1cnn2-c1ccc(S(N)(=O)=O)cc1` (stereo not shown) [Compound 9], the IC50 is 0.0334 µM.
For `NC(=O)c1nn(-c2ccc(S(N)(=O)=O)cc2)c2c1C[S+]([O-])c1ccccc1-2` (stereo not shown) [Compound 12], the IC50 came to 0.465 µM.
As to `CC1CCc2c(c(C(=O)O)nn2-c2ccc(S(N)(=O)=O)cc2)C1` (stereo not shown) [Compound 13], the IC50 came to 0.07 µM.
On the same count and under the same terms, to `NC(=O)c1nn(-c2ccc(S(N)(=O)=O)cc2)c2c1CNc1ccccc1-2` [Compound 14] belongs 0.101 µM.
`CCOC(=O)c1nn(-c2ccc(S(N)(=O)=O)cc2)c2c1CCC=C2` [Compound 15]: the IC50 came to 0.0056 µM.
Take `CS(=O)(=O)Nc1cccc(-c2cc(C(N)=O)nn2-c2ccc(S(N)(=O)=O)cc2)c1` [Compound 16]: the IC50 is 0.0338 µM.
For `CN(C)/C=N/c1cccc(-c2cc(C(N)=O)nn2-c2ccc(S(N)(=O)=O)cc2)c1` [Compound 17], the IC50 is 0.181 µM.
On to `NS(=O)(=O)c1ccc(-n2ncc3c2-c2ccncc2CC3)cc1` [Compound 18], for which the IC50 is 0.251 µM.
`CNC(=O)c1nn(-c2ccc(S(N)(=O)=O)cc2)c2c1CCc1[nH]ncc1-2` [Compound 19]: the IC50 amounted to 0.0777 µM.
As to `COCC(=O)Nc1ccc2c(c1)-c1c(c(C(N)=O)nn1-c1ccc(S(N)(=O)=O)cc1)CC2` [Compound 20], the IC50 stood at 0.435 µM.
Take `NC(=O)c1nn(-c2ccc(S(N)(=O)=O)cc2)c2c1CCc1cn(CCO)nc1-2` [Compound 21]: the IC50 was 1.22 µM.
As for `NS(=O)(=O)c1ccc(-n2nc(C(=O)O)c3c2-c2cn[nH]c2CC3)cc1` [Compound 22], the IC50 came out at 1.24 µM.
The same measure, in the same setting: to `CCOc1cccc2c(C(N)=O)nn(-c3ccc(S(N)(=O)=O)cc3)c12` [Compound 23] belongs 0.202 µM; to `NC(=O)c1nn(-c2ccc(S(N)(=O)=O)cc2)c2c1CCc1cnc(N)nc1-2` [Compound 24], 0.06 µM.
`C#CCN(CC#C)S(=O)(=O)c1ccc(-n2nc(C(N)=O)c3c2-c2nc(N)ncc2CC3)cc1` [Compound 25]: the IC50 worked out at 2.91 µM.
`NC(=O)c1cc(-c2ccco2)n(-c2ccc(S(N)(=O)=O)cc2)n1` [Compound 26]: the IC50 was determined as 0.0794 µM.
`NC(=O)c1cc(-c2ccncc2)n(-c2ccc(S(N)(=O)=O)cc2)n1` [Compound 27]: the IC50 is 0.418 µM.
With `NC(=O)c1cc(-c2cccnc2)n(-c2ccc(S(N)(=O)=O)cc2)n1` [Compound 28], the IC50 came to 0.523 µM.
Regarding `NC(=O)c1cc(-c2ccccn2)n(-c2ccc(S(N)(=O)=O)cc2)n1` [Compound 29], the IC50 stood at 0.127 µM.
Same read-out and setting: to `NC(=O)c1nn(-c2ccc(S(N)(=O)=O)cc2)c2c1CCC=C2` [Compound 30] belongs 0.0219 µM; to `COC(=O)c1cc(-c2ccc(OC)cc2)n(-c2ccc(S(N)(=O)=O)cc2)n1` [Compound 31], 0.239 µM; to `COC(=O)c1cc(-c2ccccc2)n(-c2ccc(S(N)(=O)=O)cc2)n1` [Compound 32], 0.182 µM.
On the same count and under the same terms, to `NS(=O)(=O)c1ccc(-n2nc(C(F)(F)F)cc2-c2cccnc2)cc1` [Compound 33] belongs 0.0386 µM.
As for `COC(C)Cc1cc(C(F)F)nn1-c1ccc(S(N)(=O)=O)cc1` (stereo not shown) [Compound 34], the IC50 is 0.0184 µM.
As for `C/C=C/c1cc(C(F)F)nn1-c1ccc(S(N)(=O)=O)cc1` [Compound 35], the IC50 turned out to be 0.018 µM.
On to `COC(C)(C)Cc1cc(C(F)F)nn1-c1ccc(S(N)(=O)=O)cc1` [Compound 36], for which the IC50 is 0.0463 µM.
For the molecule `NS(=O)(=O)c1ccc(-n2nc(C(=O)O)cc2-c2ccccc2)cc1` [Compound 37], the IC50 came out at 0.599 µM.
`NC(=O)c1cc(-c2ccccc2)n(-c2ccc(S(N)(=O)=O)cc2)n1` [Compound 38]: the IC50 worked out at 0.21 µM.
On the same count and under the same terms, to `COc1ccc(-c2cc(C(N)=O)nn2-c2ccc(S(N)(=O)=O)cc2)cc1` [Compound 39] belongs 0.258 µM; to `CNC(=O)c1cc(-c2ccc(OC)cc2)n(-c2ccc(S(N)(=O)=O)cc2)n1` [Compound 41], 0.334 µM.
On the same count and under the same terms, to `COc1ccc(-c2cc(C(=O)O)nn2-c2ccc(S(N)(=O)=O)cc2)cc1` [Compound 42] belongs 4.9 µM; to `COc1ccc(-c2ccnn2-c2ccc(S(N)(=O)=O)cc2)cc1` [Compound 43], 0.203 µM.
On to `NS(=O)(=O)c1ccc(-n2nc(C(=O)NCC(=O)O)cc2-c2ccc(Cl)cc2)cc1` [Compound 44], for which the IC50 amounted to 0.08 µM.
Still for that read-out and setting: to `NS(=O)(=O)c1ccc(-n2nc(C(F)(F)F)c3c2-c2ccccc2[S+]([O-])C3)cc1` (stereo not shown) [Compound 45] belongs 0.0431 µM; to `COc1ccc2c(c1F)C[S+]([O-])c1c(C(F)(F)F)nn(-c3ccc(S(N)(=O)=O)cc3)c1-2` (stereo not shown) [Compound 46], 0.06 µM; to `NS(=O)(=O)c1ccc(-n2nc(CO)cc2-c2ccc(O)cc2)cc1` [Compound 47], 0.0671 µM.
`NS(=O)(=O)c1ccc(-n2nc(C(F)(F)F)cc2O)cc1` [Compound 48]: the IC50 was 0.0812 µM.
Turning to `COc1cc(C(F)(F)F)nn1-c1ccc(S(N)(=O)=O)cc1` [Compound 49], the IC50 turned out to be 0.0087 µM.
For the molecule `CC(C)Oc1cc(C(F)(F)F)nn1-c1ccc(S(N)(=O)=O)cc1` [Compound 50], the IC50 came to 0.0171 µM.
Regarding `NC(=O)c1nn(-c2ccc(S(N)(=O)=O)cc2)c2c1CSCC2` [Compound 51], the IC50 turned out to be 0.0356 µM.
For the molecule `NS(=O)(=O)c1ccc(-n2nc(C(F)(F)F)cc2C(=O)C(=O)c2ccccc2)cc1` [Compound 53], the IC50 was determined as 0.0105 µM.
As for `NS(=O)(=O)c1ccc(-n2ncc(C(F)(F)F)c2-c2ccccc2)cc1` [Compound 56], the IC50 was 0.109 µM.
With `NS(=O)(=O)c1ccc(-n2nc(C(F)(F)F)cc2C2CCNCC2)cc1` [Compound 57], the IC50 is 0.139 µM.
As for `CNC(=O)c1nn(-c2ccc(S(N)(=O)=O)cc2)cc1-c1ccccc1` [Compound 58], the IC50 was 0.389 µM.
Consider `Cc1ccc(-c2cc(C(F)(F)F)n(-c3ccc(S(N)(=O)=O)cc3)n2)cc1` [Compound 63], for which the IC50 amounted to 0.0035 µM.
As to `NS(=O)(=O)c1ccc(-n2nc(C(F)(F)F)cc2O)cc1` [Compound 65], the IC50 came out at 0.0812 µM.

Staying with this assay, now noted: read-out: IC50 for inhibition of CA II activity.
In the case of `Cc1ccc(-c2cc(C(F)(F)F)n(-c3ccc(S(N)(=O)=O)cc3)n2)cc1` [Compound 1], the IC50 was determined as 0.01 µM.
Regarding `CS(=O)(=O)c1ccc(C2=C(c3ccccc3)C(=O)OC2)cc1` [VIII, Rofecoxib, reference compound], the IC50 was greater than 100 µM.
